Target: T1, CXCR4 receptors (Homo sapiens, UniProt P61073)
T1 construct: expressing endogenous CXCR4 receptors; endogenous in cells; host or cells: CCRF-CEM (human T lymphoblast cells)
Test: CXCR4-CEM calcium flux assay, antagonist mode (inhibition of SDF-1α-induced calcium flux)
Type: cell-based
Details: inhibition of calcium flux induced by 4 nM SDF-1α in CCRF-CEM cells
Procedure: Exemplary compounds of the invention were tested for their ability to induce or inhibit calcium flux in CCRF-CEM cells. […] CXCR4-CEM Calcium Flux Assays. […] The cells were then equilibrated to room temperature for 30 minutes before assay. […] The serially diluted compounds were diluted to working concentrations with the same assay buffer to 0.5% DMSO. […] Activity of the compounds to induce calcium flux was monitored by FDSS in the “agonist mode” for 90 sec. For “antagonist mode” assessment, the cells are subsequently incubated for 25 min at room temperature. SDF-1α (R&D System Cat#350-NS/CF) was then added at a final concentration of 4 nM to stimulate the cells. Inhibition of SDF-1α-induced calcium flux was monitored by FDSS6000 for 90 sec. […] After correcting for background, EC50 values were determined. […] Inhibition data for the test compound over a range of concentrations was plotted as percentage inhibition of the test compound as compared to an internal control compound.

T1 sequence (P61073 whole entry): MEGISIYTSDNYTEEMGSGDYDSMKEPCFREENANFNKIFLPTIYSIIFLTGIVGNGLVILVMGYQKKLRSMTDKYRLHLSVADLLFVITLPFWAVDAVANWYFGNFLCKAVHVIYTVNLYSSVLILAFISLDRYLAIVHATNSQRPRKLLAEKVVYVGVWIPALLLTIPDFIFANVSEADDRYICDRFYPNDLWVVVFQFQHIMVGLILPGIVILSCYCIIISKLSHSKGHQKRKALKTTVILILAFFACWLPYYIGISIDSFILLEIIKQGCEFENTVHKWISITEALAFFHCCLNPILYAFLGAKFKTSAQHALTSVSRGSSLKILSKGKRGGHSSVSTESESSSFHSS

In order of rising IC50:
1. CN(Cc1cn2c(N3CCN(Cc4ncc[nH]4)CC3)nccc2n1)[C@H]1CCCc2cccnc21 [Example 49, (S)-N-({5-[4-(1H-imidazol-2-ylmethyl)piperazin-1-yl]imidazo[1,2-c]pyrimidin-2-yl}methyl)-N-methyl-5,6,7,8-tetrahydroquinolin-8-amine]  0.0028 µM
2. Cc1cccc(CN2CCN(c3nccc4nc(CN(C)[C@H]5CCCc6cccnc65)cn34)CC2)c1 [Example 52, (S)-N-methyl-N-[(5-{4-[(3-methylphenyl)methyl]piperazin-1-yl}imidazo[1,2-c]pyrimidin-2-yl)methyl]-5,6,7,8-tetrahydroquinolin-8-amine]  0.0029 µM
3. CN(Cc1cn2c(N3CCN(Cc4nccn4C)CC3)nccc2n1)[C@H]1CCCc2cccnc21 [Example 51, (S)-N-methyl-N-[(5-{4-[(1-methyl-1H-imidazol-2-yl)methyl]piperazin-1-yl}imidazo[1,2-c]pyrimidin-2-yl)methyl]-5,6,7,8-tetrahydroquinolin-8-amine]  0.006 µM
4. CC(CN1CCN(c2nccc3nc(CN(C)[C@H]4CCCc5cccnc54)cn23)CC1)c1ccccc1 (stereo partly drawn) [Example 46, (S)-N-methyl-N-({5-[4-(2-phenylpropyl)piperazin-1-yl]imidazo[1,2-c]pyrimidin-2-yl}methyl)-5,6,7,8-tetrahydroquinolin-8-amine]  0.0073 µM
5. CN(Cc1cn2c(N3CCN(Cc4ccc(-c5ccccc5)cc4)CC3)nccc2n1)[C@H]1CCCc2cccnc21 [Example 47, (S)-N-methyl-N-[(5-{4-[(4-phenylphenyl)methyl]piperazin-1-yl}imidazo[1,2-c]pyrimidin-2-yl)methyl]-5,6,7,8-tetrahydroquinolin-8-amine]  0.0097 µM
6. CN(Cc1cn2c(N3CCN(Cc4ccc(O)cc4)CC3)nccc2n1)[C@H]1CCCc2cccnc21 [Example 24, 4-({4-[2-({methyl[(S)-5,6,7,8-tetrahydroquinolin-8-yl]amino}methyl)imidazo[1,2-c]pyrimidin-5-yl]piperazin-1-yl}methyl)phenol]  0.011 µM
7. CN(Cc1cn2c(N3CCN(Cc4cccnc4)CC3)nccc2n1)[C@H]1CCCc2cccnc21 [Example 28]  0.011 µM
8. CN(Cc1cn2c(N3CCN(Cc4cccc(Cl)c4)CC3)nccc2n1)[C@H]1CCCc2cccnc21 [Example 25, (S)-N-[(5-{4-[(3-chlorophenyl)methyl]piperazin-1-yl}imidazo[1,2-c]pyrimidin-2-yl)methyl]-N-methyl-5,6,7,8-tetrahydroquinolin-8-amine]  0.012 µM
9. CN(Cc1cn2c(N3CCN(Cc4cccs4)CC3)nccc2n1)[C@H]1CCCc2cccnc21 [Example 26, (S)-N-methyl-N-({5-[4-(thiophen-2-ylmethyl)piperazin-1-yl]imidazo[1,2-c]pyrimidin-2-yl}methyl)-5,6,7,8-tetrahydroquinolin-8-amine]  0.014 µM
10. CN(Cc1cn2c(N3CCN(Cc4ccccc4)CC3)nccc2n1)[C@H]1CCCc2cccnc21 [Example 37, (S)-N-{[5-(4-benzylpiperazin-1-yl)imidazo[1,2-c]pyrimidin-2-yl]methyl}-N-methyl-5,6,7,8-tetrahydroquinolin-8-amine]  0.023 µM
11. CN(Cc1cn2c(N3CCN(CC(c4ccccc4)c4ccccc4)CC3)nccc2n1)[C@H]1CCCc2cccnc21 [Example 39, (S)-N-({5-[4-(2,2-diphenylethyl)piperazin-1-yl]imidazo[1,2-c]pyrimidin-2-yl}methyl)-N-methyl-5,6,7,8-tetrahydroquinolin-8-amine]  0.063 µM
12. CN(Cc1cn2c(N3CCN(C(=O)Nc4cccnc4)CC3)nccc2n1)[C@H]1CCCc2cccnc21 [Example 45, 4-[2-({methyl[(S)-5,6,7,8-tetrahydroquinolin-8-yl]amino}methyl)imidazo[1,2-c]pyrimidin-5-yl]-N-(pyridin-3-yl)piperazine-1-carboxamide]  0.066 µM
13. CN(Cc1cn2c(N3CCN(Cc4cncn4C)CC3)nccc2n1)[C@H]1CCCc2cccnc21 [Example 27, (S)-N-methyl-N-[(5-{4-[(1-methyl-1H-imidazol-5-yl)methyl]piperazin-1-yl}imidazo[1,2-c]pyrimidin-2-yl)methyl]-5,6,7,8-tetrahydroquinolin-8-amine]  0.075 µM
14. CN(Cc1cn2c(N3CCN(Cc4ccncc4)CC3)nccc2n1)[C@H]1CCCc2cccnc21 [Example 29, (S)-N-methyl-N-({5-[4-(pyridin-4-ylmethyl)piperazin-1-yl]imidazo[1,2-c]pyrimidin-2-yl}methyl)-5,6,7,8-tetrahydroquinolin-8-amine]  0.077 µM
15. CN(Cc1cn2c(N3CCN(CC(=O)O)CC3)nccc2n1)[C@H]1CCCc2cccnc21 [Example 50, 2-{4-[2-({methyl[(S)-5,6,7,8-tetrahydroquinolin-8-yl]amino}methyl)imidazo[1,2-c]pyrimidin-5-yl]piperazin-1-yl}acetic acid]  0.092 µM
16. CN(Cc1cn2c(N3CCN(CCCc4ccccc4)CC3)nccc2n1)[C@H]1CCCc2cccnc21 [Example 34, (S)-N-methyl-N-({5-[4-(3-phenylpropyl)piperazin-1-yl]imidazo[1,2-c]pyrimidin-2-yl}methyl)-5,6,7,8-tetrahydroquinolin-8-amine]  0.12 µM
17. CN(Cc1cn2c(N3CCN(C(=O)Nc4ccccc4)CC3)nccc2n1)[C@H]1CCCc2cccnc21 [Example 43, 4-[2-({methyl[(S)-5,6,7,8-tetrahydroquinolin-8-yl]amino}methyl)imidazo[1,2-c]pyrimidin-5-yl]-N-phenylpiperazine-1-carboxamide]  0.13 µM
18. CN(Cc1cn2c(N3CCN(CC4CCCC4)CC3)nccc2n1)[C@H]1CCCc2cccnc21 [Example 31, (S)-N-({5-[4-(cyclopentylmethyl)piperazin-1-yl]imidazo[1,2-c]pyrimidin-2-yl}methyl)-N-methyl-5,6,7,8-tetrahydroquinolin-8-amine]  0.17 µM
19. CN(Cc1cn2c(N3CCN(C4CCC4)CC3)nccc2n1)[C@H]1CCCc2cccnc21 [Example 30, (S)-N-{[5-(4-cyclobutylpiperazin-1-yl)imidazo[1,2-c]pyrimidin-2-yl]methyl}-N-methyl-5,6,7,8-tetrahydroquinolin-8-amine]  0.19 µM
20. CCOC(=O)CN1CCN(c2nccc3nc(CN(C)[C@H]4CCCc5cccnc54)cn23)CC1 [Example 48, ethyl 2-{4-[2-({methyl[(S)-5,6,7,8-tetrahydroquinolin-8-yl]amino}methyl)imidazo[1,2-c]pyrimidin-5-yl]piperazin-1-yl}acetate]  0.3 µM
21. CN(Cc1cn2c(N3CCN(CC4CCOC4)CC3)nccc2n1)[C@H]1CCCc2cccnc21 (stereo partly drawn) [Example 32, (S)-N-methyl-N-({5-[4-(oxolan-3-ylmethyl)piperazin-1-yl]imidazo[1,2-c]pyrimidin-2-yl}methyl)-5,6,7,8-tetrahydroquinolin-8-amine]  0.31 µM
22. CN1CCC(N2CCN(c3nccc4nc(CN(C)[C@H]5CCCc6cccnc65)cn34)CC2)CC1 [Example 38, (S)-N-methyl-N-({5-[4-(1-methylpiperidin-4-yl)piperazin-1-yl]imidazo[1,2-c]pyrimidin-2-yl}methyl)-5,6,7,8-tetrahydroquinolin-8-amine]  0.42 µM
23. CCN1CCN(c2nccc3nc(CN(C)[C@H]4CCCc5cccnc54)cn23)CC1 [Example 35, (S)-N-{[5-(4-ethylpiperazin-1-yl)imidazo[1,2-c]pyrimidin-2-yl]methyl}-N-methyl-5,6,7,8-tetrahydroquinolin-8-amine]  0.51 µM
24. CN(Cc1cn2c(N3CCN(CC(C)(C)C)CC3)nccc2n1)[C@H]1CCCc2cccnc21 [Example 33, (S)-N-({5-[4-(2,2-dimethylpropyl)piperazin-1-yl]imidazo[1,2-c]pyrimidin-2-yl}methyl)-N-methyl-5,6,7,8-tetrahydroquinolin-8-amine]  1 µM
25. CN(Cc1cn2c(N3CCN(S(=O)(=O)c4cccnc4)CC3)nccc2n1)[C@H]1CCCc2cccnc21 [Example 41, (S)-N-methyl-N-({5-[4-(pyridine-3-sulfonyl)piperazin-1-yl]imidazo[1,2-c]pyrimidin-2-yl}methyl)-5,6,7,8-tetrahydroquinolin-8-amine]  7.5 µM
26. CC(C)NC(=O)N1CCN(c2nccc3nc(CN(C)[C@H]4CCCc5cccnc54)cn23)CC1 [Example 44, 4-[2-({methyl[(S)-5,6,7,8-tetrahydroquinolin-8-yl]amino}methyl)imidazo[1,2-c]pyrimidin-5-yl]-N-(propan-2-yl)piperazine-1-carboxamide]  9.36 µM
27. CC(C)S(=O)(=O)N1CCN(c2nccc3nc(CN(C)[C@H]4CCCc5cccnc54)cn23)CC1 [Example 40, (S)-N-methyl-N-({5-[4-(propane-2-sulfonyl)piperazin-1-yl]imidazo[1,2-c]pyrimidin-2-yl}methyl)-5,6,7,8-tetrahydroquinolin-8-amine]  14.4 µM
28. CN(Cc1cn2c(N3CCN(S(=O)(=O)c4cccc(Cl)c4)CC3)nccc2n1)[C@H]1CCCc2cccnc21 [Example 42, (S)-N-({5-[4-(3-chlorobenzenesulfonyl)piperazin-1-yl]imidazo[1,2-c]pyrimidin-2-yl}methyl)-N-methyl-5,6,7,8-tetrahydroquinolin-8-amine]  22.7 µM
29. CN(Cc1cn2c(N3CCN(CCC(F)(F)F)CC3)nccc2n1)[C@H]1CCCc2cccnc21 [Example 36, (S)-N-methyl-N-({5-[4-(3,3,3-trifluoropropyl)piperazin-1-yl]imidazo[1,2-c]pyrimidin-2-yl}methyl)-5,6,7,8-tetrahydroquinolin-8-amine]  30.7 µM

From patent US10450318B2, “CXCR4 receptor antagonists” (BRISTOL-MYERS SQUIBB COMPANY, priority 2015, dated 2019)
